Assays:
[1] = In vivo circulation of labeled RBCs and lipid retention, flow cytometry, BALB/c mice; settings: for half-life: both sexes, mouse, whole blood (RBCs), iv, mono- or biexponential decay, summary value, read-out: MFI half life, estimated (extrapolated) terminal (converted)
Description: Next, we investigated in vivo retention and longevity of modified RBCs. We used the lipids with the highest labeling efficiency (Figure 2C,D) for in vivo studies: DiI-C18, DiI-C18:2, DiI-C12, Cy3-C12, DiI-PEG3400Mtz, Cy3-DSPE, and Cy3-cholesterol. Labeled RBCs were injected intravenously in BALB/c mice and the circulating levels (percent positive RBCs) and the stability of the lipid (MFI of the labeled population) were analyzed by flow cytometry (Figure 3A). Representative dot plots for DiI-C18 and DiI-C18:2 (Figure 3B) show a distinct population of labeled RBCs at both 1 min (between 9% and 13% of total RBCs) and 3 weeks postinjection. We found differences between lipids in terms of both percent RBC and percent MFI (Figure 3C,D). […] DiI-C18 RBCs had ≈40 days circulation span and only about 33% decrease in MFI at Day 20. […] Cy3-cholesterol RBCs had ≈30 days circulation span, but MFI dropped below 35% at Day 22.
The University of Colorado Institutional Animal Care and Use Committee (IACUC) approved animal experiments (protocol 103 913(11)1D). Mice were treated according to regulations provided by the Office of Laboratory Animal Resources at the University of Colorado. BALB/c and NOD/LtSz-SCID IL2Rγc null (NSG) mice were bred in-house. Mice of 8–10 weeks age (males and females) were used for experiments. Mice were injected intravenously with ≈10^9 RBCs (each strain was injected with RBCs derived from the same strain). At different time intervals, ≈20 μL of blood were obtained with heparinated haematocrit capillary (ThermoFisher) via periorbital plexus. RBCs were resuspended at ≈0.5 million mL^−1 in 1%BSA/PBS and analyzed by Guava easyCyte HT flow cytometer (20 000 RBCs were counted after gating out platelets and leukocytes). The percentage of positive RBCs and mean fluorescence intensity (MFI) of labeled RBCs (if more than 1% of total RBCs) was determined using FlowJo software v.10 (BD Life Sciences, Ashland, OR). For pharmacokinetic analysis, the flow data were normalized to 100% injected dose (MFI and percent labeled RBCs at 1 min) and fit into mono or biexponential decay using the pharmacokinetic modeling software Boomer.[21]

[2] = Lipid stability in RBCs in mouse serum in vitro; assay type: in vitro ADME, mouse (BALB/c serum); settings: 3 h; for loss in MFI of labeled RBCs: 37 °C
Description: The nature of lipid linker affects in vivo retention. […] To compare the stability of different lipids in vitro, we measured the fluorescence of labeled RBCs after incubation in mouse serum for 3 h.
Mouse RBC labeled with lipids were incubated in mouse serum at 37 °C for up to 3 h. Intact RBCs were removed by centrifugation at 3000 g for 10 min at room temperature. RBCs were washed three times in 1% BSA/PBS to remove the remaining serum, and the labeling (MFI) was determined by flow cytometry as described above. The supernatant was analyzed for fluoresce released from RBC by dotting 2 μL on 0.45 μm nitrocellulose membrane and scanning with a Bio-Rad gel imager for Cy3 fluorescence at 540 nm excitation/560 nm emission. For TLC, 10 parts of methanol were added to 1 part of serum, and the tubes were centrifuged at 500 g for 10 min to pellet the protein fraction. The methanol phase was carefully collected, applied on TLC Silica Gel 60 F254 (EMD Millipore), and separated on the mobile phase chloroform: methanol (9:1) with 0.1% trifluoroacetic acid. The plates were scanned with a Bio-Rad gel imager for Cy3 fluorescence.

human RBCs = assay: Labeling of human RBCs with lipids, flow cytometry; assay type: cell-based; settings: lipids at 25 μM, 1 h; for percentage of labeled human RBCs (in words) / MFI of labeled human RBCs, fold higher than the rest of the lipids: flow cytometry
Description: We acquired commercially available dialkyl indocarbocyanine lipids DiI-C18, DiI-C18:2, DiI-C16, DiI-C12 and synthesized additional headgroup derivatives of DiI-C18: DiI-amine, DiI-PEG5000, and DiI-PEG3400-methyltetrazine (Mtz). In addition, we prepared diacyl glycerol derivatives of Cy3: Cy3-C18, Cy3-C18:1, Cy3-C16, Cy3-C14, Cy3-C12, phospholipid derivative Cy3-distearoyl phosphatidylethanolamine (Cy3-DSPE), and Cy3-cholesterol. This library covers different lipid lengths, lipid types, and also headgroup-tail linkages. In addition, the library includes a limited number of headgroup derivatives relevant to drug delivery. Thus, PEGylated lipids have importance for erythrocyte PEGylation for blood camouflaging. Mtz is a click chemistry group that enables versatile modifications with biomolecules,[13] but also serves as a mimic of a small molecule payload (Mw 230 Da). To determine the labeling efficiency, we used fresh human RBCs from two healthy donors. RBCs were incubated with lipids at 25 μM for 1 h and washed and analyzed with flow cytometry for the percentage of labeled cells and mean fluorescence intensity (MFI). […] Select lipids were then used to label mouse RBCs. The data in Figure 2C,D show generally higher mouse RBC labeling efficiency (MFI and percent RBCs) than human RBCs. […] Finally, we checked the linearity of the Cy3 group signal when incorporated in RBCs.
Fresh human RBCs were obtained from discarded leukodepletion filters after processing sodium citrate anticoagulated donor blood at the Children’s Hospital Colorado Blood Donation Center. Institutional review board approval was not required for discarded material and anonymous samples. RBCs were eluted from leukodepletion filters by applying ACD buffer in the direction of the flow and were used within 2 h after blood collection. Sodium EDTA-anticoagulated mouse blood was collected from female or male BALB/c and NSG mice (8–10 weeks of age) via cardiac puncture, according to the animal protocol approved by the University of Colorado IACUC). Human RBCs were washed in ACD buffer and mouse RBC were washed in 1% BSA/PBS at room temperature at 3,000 g, total 3 times. Erythrocyte suspension (≈10^10/mL) was incubated with 25 μM lipids in ACD buffer (human RBCs) or 1% BSA/PBS (mouse RBCs) at 37 °C for 1 h and washed three times in ACD buffer or 1% BSA/PBS as described above. Labeling efficiency were determined by Guava easyCyte HT flow cytometer (Luminex Corp, Seattle, WA) as described later.

mouse RBCs = assay: Labeling of mouse RBCs with lipids, flow cytometry; assay type: cell-based, mouse (BALB/c); settings: lipids at 25 μM, 1 h
Description: We acquired commercially available dialkyl indocarbocyanine lipids DiI-C18, DiI-C18:2, DiI-C16, DiI-C12 and synthesized additional headgroup derivatives of DiI-C18: DiI-amine, DiI-PEG5000, and DiI-PEG3400-methyltetrazine (Mtz). In addition, we prepared diacyl glycerol derivatives of Cy3: Cy3-C18, Cy3-C18:1, Cy3-C16, Cy3-C14, Cy3-C12, phospholipid derivative Cy3-distearoyl phosphatidylethanolamine (Cy3-DSPE), and Cy3-cholesterol. This library covers different lipid lengths, lipid types, and also headgroup-tail linkages. In addition, the library includes a limited number of headgroup derivatives relevant to drug delivery. Thus, PEGylated lipids have importance for erythrocyte PEGylation for blood camouflaging. Mtz is a click chemistry group that enables versatile modifications with biomolecules,[13] but also serves as a mimic of a small molecule payload (Mw 230 Da). […] RBCs were incubated with lipids at 25 μM for 1 h and washed and analyzed with flow cytometry for the percentage of labeled cells and mean fluorescence intensity (MFI). […]
Fresh human RBCs were obtained from discarded leukodepletion filters after processing sodium citrate anticoagulated donor blood at the Children’s Hospital Colorado Blood Donation Center. […] Labeling efficiency were determined by Guava easyCyte HT flow cytometer (Luminex Corp, Seattle, WA) as described later.

[3] = test system: mouse peritoneal macrophages; assay: Uptake of labeled RBCs by peritoneal macrophages; assay type: cell-based; settings: 24 h incubation, fluorescent microscopy
Description: Fresh nonactivated macrophages were isolated and seeded in culture for 24 h in a 96-well culture-treated plate (Corning Inc.) as described.[19] On the next day, labeled RBCs were added (≈1 × 10^5 RBC/well) in triplicates, and macrophages were incubated for 24 h. In some experiments, PMF were prelabeled with 10 μM DiO for 2 h before addition of RBCs. After incubation, macrophages were washed with PBS 4 times to remove nonbound RBCs, fixed with 4% formalin, and stained with nuclear stain Hoechst. Cells were imaged under 100× magnification with Zeiss Axio Observer 5 epifluorescent microscope, and ≈7 microscopic fields were acquired. To verify RBC localization outside the cells, a Nikon Eclipse AR1HD inverted confocal microscope with 405, 488, 561, and 640 nm excitation lasers and corresponding emission filters was used. The percentage of DiI+ cells and rosette+ cells per field was determined manually and plotted with Prism.

[4] = Organ biodistribution of labeled RBCs (NIR imaging, confocal microscopy of liver and spleen); settings: Day 40 (DiI-C18 RBCs), Day 29 (DiI-PEG3400Mtz RBCs)
Description: To determine the location of the label in the clearance organs, we imaged freshly excised livers and spleens of BALB/c mice injected with DiI-C18 RBCs and DiI-PEG3400Mtz RBCs (Day 40 and Day 29, respectively) with confocal microscope.
When labeled RBCs reached <1% of total RBCs (usually 10% or less of the injected dose), mice were injected with FITC-lectin and Hoechst and sacrificed with carbon dioxide (CO2) followed by cardiac perfusion. Fresh livers and spleens were placed on glass slides and imaged with Nikon Eclipse AR1HD inverted confocal microscope with Plan Apo 10 objective as described.[18]

[5] = parameters: method as in PMID 33532572; settings: 48 h postinjection in mice ref 8a; cited from earlier work
[6] = parameters: species or system BALB/c mice; settings: mouse
Description: Figure 6. Biodistribution and immune recognition of RBCs. A) RBCs labeled with DiR were injected in BALB/c mice and blood fluorescence was monitored with NIR scanner Li-COR Odyssey. […] D) Confocal microscopy images of fresh livers and spleens of mice injected with DiI-C18 and DiI-PEG3400Mtz (after in vivo labeling of blood vessels and nuclei with FITC-lectin and Hoechst). The lipid accumulates in extrasinusoidal cells in the spleen and predominantly in sinusoidal cells in the liver (i.e., endothelium and Kupffer cells). […] E) RBCs were incubated with fresh peritoneal macrophages for 24 h. […] F) Quantification of percent cells (per field) that contain intracellular DiI. G) Quantification of percent cells (per field) that contain DiI+ rosettes. P-value: ****0.0001; ***<0.001 2-sided t-test, alpha 0.05.

| SMILES | circulation and retention of labeled RBCs (in words) ([1]; i.v., BALB/c) | loss in MFI of labeled RBCs [2] | percentage of labeled human RBCs (in words) (human RBCs) | MFI of labeled human RBCs, fold higher than the rest of the lipids (human RBCs) | half-life ([1]; BALB/c) [h] | also measured |
| --- | --- | --- | --- | --- | --- | --- |
| CCCCCCCCCCCC(=O)OCC(CNC(=O)CCCCC[N+]1=C(/C=C/C=C2/N(C)c3ccccc3C2(C)C)C(C)(C)c2ccccc21)OC(=O)CCCCCCCCCCC (stereo not drawn) [Cy3-C12] | disappeared within a few days postinjection | less than 15% | highest percentage of labeled human RBCs |  |  | drop in MFI of labeled RBCs ([1]; Day 3, 1 min postinjection = 100%): 85% |
| CCCCCCCCCCCCCC(=O)OCC(CNC(=O)CCCCC[N+]1=C(/C=C/C=C2/N(C)c3ccccc3C2(C)C)C(C)(C)c2ccccc21)OC(=O)CCCCCCCCCCCCC (stereo not drawn) [Cy3-C14] |  |  | highest percentage of labeled human RBCs |  |  |  |
| CCCCCCCCCCCCCCCCCC(=O)OC[C@H](COP(=O)(O)OCCNC(=O)CCCCC[N+]1=C(/C=C/C=C2/N(C)c3ccccc3C2(C)C)C(C)(C)c2ccccc21)OC(=O)CCCCCCCCCCCCCCCCC [Cy3-DSPE, Cy3-distearoyl phosphatidylethanolamine] | disappeared within a few days postinjection | over 60% | highest percentage of labeled human RBCs | 2–3 fold |  | TLC analysis of serum supernatant [2]: presence of intact Cy3-DSPE along with some degradation products; fluorescence released in serum from labeled RBCs, relative to DiI-C18 RBCs [2]: five times more fluorescence released in serum; human RBC labeling efficiency (human RBCs): 100% |
| CC(C)CCCC(C)C1CCC2C3CC=C4CC(OC(=O)CCCCC[N+]5=C(C=CC=C6N(C)c7ccccc7C6(C)C)C(C)(C)c6ccccc65)CCC4(C)C3CCC12C (stereo not drawn) [Cy3-cholesterol] | longest circulation and retention | less than 15% |  |  | 300 | MFI of labeled RBCs, percent of initial ([1]; Day 22, 1 min postinjection = 100%): below 35% |
| CCCCCCCCCCCCN1/C(=C/C=C/C2=[N+](CCCCCCCCCCCC)c3ccccc3C2(C)C)C(C)(C)c2ccccc21 [DiI-C12] |  | less than 15% | highest percentage of labeled human RBCs | 2–3 fold | 72 | decrease in MFI of labeled RBCs (in words) ([1]; i.v., BALB/c): much faster decrease in MFI than DiI-C18 and Cy3-cholesterol; human RBC labeling efficiency (in words) (human RBCs): highest efficiency; mouse RBC labeling efficiency (in words) (mouse RBCs): highest efficiency |
| CCCCCCCCCCCCCCCCN1/C(=C/C=C/C2=[N+](CCCCCCCCCCCCCCCC)c3ccccc3C2(C)C)C(C)(C)c2ccccc21 [DiI-C16] |  |  |  | 2–3 fold |  |  |
| CCCCCCCCCCCCCCCCCCN1/C(=C/C=C/C2=[N+](CCCCCCCCCCCCCCCCCC)c3ccccc3C2(C)C)C(C)(C)c2ccccc21 [DiI-C18] | longest circulation and retention | less than 15% |  | 2–3 fold | > 1920 | decrease in MFI of labeled RBCs ([1]; Day 20, 1 min postinjection = 100%): about 33%; macrophages with intracellular Cy3 fluorescence [3]: mostly intracellular uptake; location of Cy3 signal in liver and spleen, confocal microscopy [4]: predominant accumulation of Cy3 signal in extrasinusoidal spleen cells and some accumulation in the liver sinusoids; lipid present in the RBC membrane [5]: up to 90%; human RBC labeling efficiency (human RBCs): 28% |
| CCCCCCCCCCCCCCCCCCN1/C(=C/C=C/C2=[N+](CCCCCCCCCCCCCCCCCC)c3ccc(CN)cc3C2(C)C)C(C)(C)c2ccccc21 [DiI-amine] |  |  |  |  |  | labeling efficiency of human RBCs, fold lower than the parent DiI-C18 (human RBCs): ≈ 4 fold |
| CCCCCCCCCCCCCCCCCCN1C(=CC=CC=CC=CC2=[N+](CCCCCCCCCCCCCCCCCC)c3ccccc3C2(C)C)C(C)(C)c2ccccc21.[I-] [DiR-C18, 1,1′-Dioctadecyl-3,3,3′,3′-Tetramethylindotricarbocyanine Iodide] |  |  |  |  |  | in vivo life span of labeled RBCs [6]: over 30 days; terminal half life of labeled RBCs ([6]; in vivo): 175 h |

— PMC9797212, “Surface Modification of Erythrocytes with Lipid Anchors: Structure–Activity Relationship for Optimal Membrane Incorporation, in vivo Retention, and Immunocompatibility” (Advanced nanobiomed research, 2022)
